The record followed here is patent US4727086A, “Certain anti-hypertensive 2,3-dihydrobenzofuran compounds” (Adir et Compagnie, priority 1985, dated 1988).

In assay [1] the test system is coronary artery of the dog. In words: Contraction-inhibiting activity on the coronary artery of the dog (in vitro). The format is cell-based. As to conditions: Canis lupus familiaris, 0.25 h, contraction induced by 100 mM potassium ions, reactivation with 10 and 20 mM calcium ions, 15-minute action, read-out: ED50 (dose capable of inhibiting 50% of the maximum contraction). The method, then:
Assessment of the Contraction-Inhibiting Activity on the Coronary Artery of the Dog
The inhibiting activity on contraction induced by calcium ions was assessed in vitro on the coronary artery of the dog according to the method described by Godfraind and Miller in Circ. Res. (1983) 52, No. 2, pp. 81-91. Contraction was induced by a solution containing 100 millimoles of potassium ions per liter. The compounds to be examined were then introduced in cumulative doses and after a 15-minute period of action the preparation was reactivated with solutions having a calcium ion concentration of 10 and 20 mM. The dose capable of inhibiting 50% (ED50) of the maximum contraction was assessed.

A further assay deals with mongrel dogs. In words: Haemodynamic effects in vivo in anaesthetised dogs. As to the method:
Haemodynamic Effects In Vivo
The haemodynamic effects were assessed in mongrel dogs weighing from 25 to 30 kg which had been anaesthetised with sodium phenobarbital, had undergone a thoractomy at the 5th left intercostal space and carried electromagnetic rings at the level of the circumflex branch of the left coronary artery and at the level of the ascending aorta. The maximum bradycardic effect (E.B. max.), the mean coronary resistances (C.V.R.M.), the coronary output (C.B.F.M.), and the arterial pressure (P.A.) were measured after the intravenous injection of a dose of 300 μg/kg and 1000 μg/kg of the compounds of Examples 1 and 13.
Table 5 summarises the various results which are expressed as percentage increases (+%) or percentage decreases (-%) in the values in relation to those observed before treatment.

Turning to `COc1ccc2c(c1)C(CCCN(C)CCc1ccc(OC)c(OC)c1)(c1ccccc1)CO2.O=P(O)(O)O` (centres unmarked) [Example 1, 5-methoxy-3-phenyl-3-[3-(N-(3,4-dimethoxyphenethyl)-N-methylamino)-propyl]-2,3-dihydrobenzofuran phosphate], the IC50 in assay [1] was determined as 1.7 µM. In the assay on mongrel dogs (300 μg/kg intravenous), the “CBFM (coronary output), % change vs before treatment” value (“CBFM (coronary output), % change” below) was “+51%”; the “CRVM (mean coronary resistances), % change vs before treatment” value (shortened to “CRVM … % change vs before treatment”) is -39%; the “EB max (maximum bradycardic effect), % change vs before treatment” value (shortened to “EB max … % change vs before treatment”) is given as -7%; the “PA (arterial pressure), % change vs before treatment” value (from here on “PA (arterial pressure), % change”) was -9%. For the same compound, in the assay with mongrel dogs (1000 μg/kg intravenous), the “CBFM (coronary output), % change” value was “+85%”; the “CRVM … % change vs before treatment” value is -57%; the “EB max … % change vs before treatment” value is -13%; the “PA (arterial pressure), % change” value is -21%.
Regarding `COc1cccc(N2CCN(CCCC3(c4ccccc4)COc4ccc(Cl)cc43)CC2)c1` (centres unmarked) [Example 2, 5-chloro-3-phenyl-3-[3-(4-(3-methoxyphenyl)-1-piperazinyl)-propyl]-2,3-dihydrobenzofuran], the IC50 in assay [1] is 10 µM.
For the compound `COc1ccc(CCN(C)CCCC2(c3ccccc3)COc3cc(OC)c(OC)cc32)cc1OC` (centres unmarked) [Example 3, 5,6-dimethoxy-3-phenyl-3-[3-(N-(3,4-dimethoxyphenethyl)-N-methylamino)-propyl]-2,3-dihydrobenzofuran], the IC50 in assay [1] was found to be 90 µM.
As to `COc1ccc(CCN(C)CCCC2(c3ccccc3)COc3ccc(Cl)cc32)cc1OC` (centres unmarked) [Example 4, 5-chloro-3-phenyl-3-[3-(N-(3,4-dimethoxyphenethyl)-N-methylamino)-propyl]-2,3-dihydrobenzofuran], the IC50 in assay [1] came out at 30 µM.
With `COc1ccc2c(c1)C(CCCN(C)CCc1ccc(OC)c(OC)c1)(c1ccc(C)cc1)CO2` (centres unmarked) [Example 5, 5-methoxy-3-(4-methylphenyl)-3-[3-(N-(3,4-dimethoxyphenethyl)-N-methylamino)-propyl]-2,3-dihydrobenzofuran], the IC50 in assay [1] amounted to 26 µM.
With `COc1ccc2c(c1)C(CCCN(C)C1Cc3cc(OC)c(OC)cc3C1)(c1ccccc1)CO2` (centres unmarked) [Example 6, 5-methoxy-3-phenyl-3-[3-(N-(5,6-dimethoxy-2-indanyl)-N-methylamino)-propyl]-2,3-dihydrobenzofuran], the IC50 in assay [1] was determined as 10 µM.
For the compound `COc1ccc2c(c1)C(CCCN1CCc3cc(OC)c(OC)cc3C1)(c1ccccc1)CO2` (centres unmarked) [Example 7, 5-methoxy-3-phenyl-3-[3-(6,7-dimethoxy-1,2,3,4-tetrahydro-2-isoquinolyl)-propyl]-2,3-dihydrobenzofuran], the IC50 in assay [1] was 6.3 µM.
Consider `COc1ccc2c(c1)C(CCCN(C)CCc1ccccc1)(c1ccccc1)CO2` (centres unmarked) [Example 8, 5-methoxy-3-phenyl-3-[3-(N-phenethyl-N-methylamino)-propyl]-2,3-dihydrobenzofuran], for which, in assay [1], the IC50 amounted to 8.4 µM.
`COc1ccc2c(c1)C(CCCN1CCN(C)CC1)(c1ccccc1)CO2` (centres unmarked) [Example 9, 5-methoxy-3-phenyl-3-[3-(4-methyl-1-piperazinyl)-propyl]-2,3-dihydrobenzofuran]: the IC50 in assay [1] came to 35 µM.
Regarding `CCN(CC)CCCC1(c2ccccc2)COc2ccc(OC)cc21` (centres unmarked) [Example 10, 5-methoxy-3-phenyl-3-[3-(N-diethylamino)-propyl]-2,3-dihydrobenzofuran], in assay [1], the IC50 turned out to be 6.1 µM.
For `COc1ccc2c(c1)C(CCCN(C)CCc1ccc(OC)c(OC)c1)(c1ccccc1)C(O)O2` (centres unmarked) [Example 11, 2-Hydroxy-5-methoxy-3-phenyl-3-[3-(N-(3,4-dimethoxyphenethyl)-N-methylamino)-propyl]-2,3-dihydrobenzofuran phosphate], in assay [1], the IC50 was 6.2 µM.
With `COc1ccc(CCN(C)CCCC2(c3ccccc3)c3cc(OC)c(OC)cc3OC2O)cc1OC` (centres unmarked) [Example 12, 2-hydroxy-5,6-dimethoxy-3-phenyl-3-[3-(N-(3,4-dimethoxyphenethyl)-N-methylamino)-propyl]-2,3-dihydrobenzofuran phosphate], in assay [1], the IC50 came to 8 µM.
As for `COc1ccc(CCN(C)CCCC2(c3ccccc3)COc3ccccc32)cc1OC.O=P(O)(O)O` (centres unmarked) [Example 13, 3-phenyl-3-[3-(N-(3,4-dimethoxyphenethyl)-N-methylamino)-propyl]-2,3-dihydrobenzofuran phosphate], the IC50 in assay [1] is 4 µM. For the same compound, in the assay with mongrel dogs (300 μg/kg intravenous), the “CBFM (coronary output), % change” value is reported as “+31%”; the “CRVM … % change vs before treatment” value was -36%; the “EB max … % change vs before treatment” value is listed as -8%; the “PA (arterial pressure), % change” value is listed as -16%. For the same compound, in the assay with mongrel dogs (1000 μg/kg intravenous), the “CBFM (coronary output), % change” value is on record as “+59%”; the “CRVM … % change vs before treatment” value is listed as -60%; the “EB max … % change vs before treatment” value is reported as -10%; the “PA (arterial pressure), % change” value is on record as -31%.
In the case of `c1ccc(C2(CCCN3CCc4ccsc4C3)COc3ccccc32)cc1` (centres unmarked) [Example 14, 3-phenyl-3-[3-(1,2,6,7-tetrahydro-(2,3-c)-thieno-1-pyridinyl)-propyl]-2,3-dihydrobenzofuran], the IC50 in assay [1] came out at 9 µM.
The same measure, in the same setting: the figure for `c1ccc(C2(CCCN3CCOCC3)COc3ccccc32)cc1` (centres unmarked) [Example 15, 3-phenyl-3-[3-(4-morpholinyl)-propyl]-2,3-dihydrobenzofuran] is 50 µM; for `COc1cccc(N2CCN(CCCC3(c4ccccc4)COc4ccccc43)CC2)c1` (centres unmarked) [Example 16, 3-phenyl-3-[3-(4-(3-methoxyphenyl)-1-piperazinyl)-propyl]-2,3-dihydrobenzofuran] it is 9 µM.
